Assay results as given in patent publication US12371454B2, “Cyclic peptide compound having Kras inhibitory action” (priority 2019, dated 2025).
Starred links: 1 amine or outer side, 2 acyl side, 3 side chain; linkers in the order of their positions; H or OH if unused. Positions of bridges follow the written chain, without caps; N, C: chain ends. Non-standard residues stand in square brackets, D forms with d. Residues, ends and D or L forms follow the SMILES beside them. *: point of attachment. hPhe(3-Cl-4-CF3) = N[C@@H](CCc1ccc(C(F)(F)F)c(Cl)c1)C(=O)O; X63 = O=C(C(CCc1ccc(C(F)(F)F)c(Cl)c1)N[*:1])[*:2]; NMeTyr(3-F) = CN[C@@H](Cc1ccc(O)c(F)c1)C(=O)O; NEtPhe(2-Cl) = CCN[C@@H](Cc1ccccc1Cl)C(=O)O; NMePhe(4-Me) = CN[C@@H](Cc1ccc(C)cc1)C(=O)O; NMedβ3hAla = C[C@H](CC(=O)[*:2])N(C)[*:1]; NMeAla(cPent) = CN[C@@H](CC1CCCC1)C(=O)O; NMeGly(cPent) = CN[C@H](C(=O)O)C1CCCC1; NMeY = CN[C@@H](Cc1ccc(O)cc1)C(=O)O; X64 = CN(C)CCOCCN(CC(=O)[*:2])[*:1]; NMeCha = CN[C@@H](CC1CCCCC1)C(=O)O; NMeChg = CN[C@H](C(=O)O)C1CCCCC1; NMeI = CC[C@H](C)[C@H](NC)C(=O)O; NMeD = CN[C@@H](CC(=O)O)C(=O)O; NMeL = CN[C@@H](CC(C)C)C(=O)O; NMeV = CN[C@H](C(=O)O)C(C)C; NMeAbu = CC[C@H](NC)C(=O)O; NMeA = CN[C@@H](C)C(=O)O; NMeAib = CNC(C)(C)C(=O)O; Piperidide = C1CCN(*)CC1; Pyrrolidide = C1CCN(*)C1; Ac5c = NC1(C(=O)O)CCCC1; Aze = O=C(O)[C@@H]1CCN1; Sar = CNCC(=O)O

The molecules below were run against T1, Kras and SOS1 (biotin-tagged human Kras loaded with GDP, His-tagged human SOS1) (Homo sapiens, UniProt P01116, G12D) (assay: Protein-protein interaction inhibition between Kras and SOS1 (KrasGl2D-SOS PPI) using AlphaScreen). Details: AlphaScreen; biotin-tagged human Kras loaded with GDP, His-tagged human SOS1; read-out: KRAS G12D-SOS PPI IC50.
T1 construct: made in house; host or cells: E. coli (stated for Kras only)
T1 sequence (P01116 1-188 isoform P01116-2 G12D): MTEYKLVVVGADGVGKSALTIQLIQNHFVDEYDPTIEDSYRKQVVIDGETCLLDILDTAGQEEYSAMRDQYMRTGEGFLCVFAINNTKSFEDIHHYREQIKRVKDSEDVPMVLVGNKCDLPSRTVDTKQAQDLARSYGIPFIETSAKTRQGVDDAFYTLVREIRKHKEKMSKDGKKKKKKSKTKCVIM
Format: binding
Procedure, shortened: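 Binding between SOS1 and Kras is detected as bead-proximity luminescence: illuminate Ni-conjugated donors (680 nm), collect 520-620 nm emission from streptavidin-conjugated acceptors; Kras carries biotin and GDP loaded after purification, SOS1 carries a His tag.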
With `CC[C@H](C)[C@@H]1NC(=O)[C@H](C)N(C)C(=O)C[C@@H](C)N(C)C(=O)[C@H](CC)N(C)C(=O)C(C)(C)N(C)C(=O)[C@@H]2CCCN2C(=O)[C@H](CCc2ccc(C(F)(F)F)c(Cl)c2)NC(=O)CN(C)C(=O)[C@H](CC2CCCCC2)N(C)C(=O)[C@@H]2CCN2C(=O)[C@H](C)N(C)C1=O` [Compound 2154] (cyclo([Aze][NMeCha][Sar][hPhe(3-Cl-4-CF3)]P[NMeAib][NMeAbu][NMedβ3hAla][NMeA]I[NMeA])) the IC50 was 33 nM. `CC[C@H](C)[C@@H]1NC(=O)[C@H](C)N(C)C(=O)C[C@@H](C)N(C)C(=O)[C@H](C2CCCC2)N(C)C(=O)C(C)(C)N(C)C(=O)[C@@H]2CCCN2C(=O)[C@H](CCc2ccc(C(F)(F)F)c(Cl)c2)NC(=O)CN(C)C(=O)[C@H](CC2CCCCC2)N(C)C(=O)[C@@H]2CCN2C(=O)[C@H](C)N(C)C1=O` [Compound 2156] (cyclo([Aze][NMeCha][Sar][hPhe(3-Cl-4-CF3)]P[NMeAib][NMeGly(cPent)][NMedβ3hAla][NMeA]I[NMeA])) was tested, and the IC50 was 4.5 nM. For `CC[C@H](C)[C@@H]1NC(=O)[C@H](C)N(C)C(=O)C[C@@H](C)N(C)C(=O)[C@H](CC2CCCC2)N(C)C(=O)C(C)(C)N(C)C(=O)[C@@H]2CCCN2C(=O)[C@H](CCc2ccc(C(F)(F)F)c(Cl)c2)NC(=O)CN(C)C(=O)[C@H](CC2CCCCC2)N(C)C(=O)[C@@H]2CCN2C(=O)[C@H](C)N(C)C1=O` [Compound 2158] (cyclo([Aze][NMeCha][Sar][hPhe(3-Cl-4-CF3)]P[NMeAib][NMeAla(cPent)][NMedβ3hAla][NMeA]I[NMeA])), the IC50 was 89 nM. `CC[C@H](C)[C@@H]1NC(=O)[C@H](C)N(C)C(=O)C[C@@H](C)N(C)C(=O)[C@H](CC(C)C)N(C)C(=O)C(C)(C)N(C)C(=O)[C@@H]2CCCN2C(=O)[C@H](CCc2ccc(C(F)(F)F)c(Cl)c2)NC(=O)CN(C)C(=O)[C@H](CC2CCCCC2)N(C)C(=O)[C@@H]2CCN2C(=O)[C@H](C)N(C)C1=O` [Compound 2160] (cyclo([Aze][NMeCha][Sar][hPhe(3-Cl-4-CF3)]P[NMeAib][NMeL][NMedβ3hAla][NMeA]I[NMeA])) was tested, and the IC50 was 3.8 nM. With `CC[C@H](C)[C@@H]1NC(=O)[C@H](C)N(C)C(=O)C[C@@H](C(=O)N2CCCC2)N(C)C(=O)[C@H](C(C)C)N(C)C(=O)C2(CCCC2)NC(=O)[C@H](Cc2ccccc2Cl)N(CC)C(=O)[C@H](CCc2ccc(C(F)(F)F)c(Cl)c2)NC(=O)CN(C)C(=O)[C@H](CC2CCCCC2)N(C)C(=O)CN(C)C(=O)CN(C)C1=O` [Compound 2162] ([NMeA]I[Sar][Sar][NMeCha][Sar][hPhe(3-Cl-4-CF3)][NEtPhe(2-Cl)][Ac5c][NMeV][NMeD]-Pyrrolidide; lactam N-11) the IC50 was 200 nM. With `CC[C@H](C)[C@@H]1NC(=O)[C@H](CC(C)C)N(C)C(=O)C[C@@H](C(=O)N2CCCCC2)N(C)C(=O)[C@H](C2CCCCC2)N(C)C(=O)C2(CCCC2)NC(=O)[C@H](Cc2ccc(O)c(F)c2)N(C)C(=O)[C@H](CCc2ccc(C(F)(F)F)c(Cl)c2)NC(=O)CN(C)C(=O)[C@H](CC2CCCCC2)N(C)C(=O)CN(C)C(=O)CN(C)C1=O` [Compound 2170] ([NMeL]I[Sar][Sar][NMeCha][Sar][hPhe(3-Cl-4-CF3)][NMeTyr(3-F)][Ac5c][NMeChg][NMeD]-Piperidide; lactam N-11) the IC50 was 69 nM. For `CC[C@H](C)[C@@H]1NC(=O)[C@H](CC(C)C)N(C)C(=O)C[C@@H](C(=O)N2CCCCC2)N(C)C(=O)[C@H](C2CCCCC2)N(C)C(=O)C2(CCCC2)NC(=O)[C@H](Cc2ccc(OC)cc2)N(C)C(=O)[C@H](CCc2ccc(C(F)(F)F)c(Cl)c2)NC(=O)CN(C)C(=O)[C@H](CC2CCCCC2)N(C)C(=O)CN(C)C(=O)CN(C)C1=O` [Compound 2171] ([NMeL]I[Sar][Sar][NMeCha][Sar][hPhe(3-Cl-4-CF3)][NMeY](Me)[Ac5c][NMeChg][NMeD]-Piperidide; lactam N-11), the IC50 was 120 nM. `CC[C@H](C)[C@@H]1NC(=O)[C@H](CC(C)C)N(C)C(=O)C[C@@H](C(=O)N(C)C)N(C)C(=O)[C@H]([C@@H](C)CC)N(C)C(=O)C2(CCCC2)NC(=O)CN(CCOCCN(C)C)C(=O)C(CCc2ccc(C(F)(F)F)c(Cl)c2)NC(=O)CN(C)C(=O)[C@H](Cc2ccc(C)cc2)N(C)C(=O)[C@@H]2CCN2C(=O)[C@H](C)N(C)C1=O` (stereo partly drawn) [Compound 2181, (3S,6S,9S,13S,16S,31S,34S)-25-[2-[3-chloro-4-(trifluoromethyl)phenyl]ethyl]-23-[2-[2-(dimethylamino)ethoxy]ethyl]-9-isobutyl-N,N,3,4,10,14,17,29,32-nonamethyl-6,16-bis[(1S)-1-methylpropyl]-2,5,8,11,15,18,21,24,27,30,33-undecaoxo-31-(p-tolylmethyl)spiro[1,4,7,10,14,17,20,23,26,29,32-undecazabicyclo[32.2.0]hexatriacontane-19,1′-cyclopentane]-13-carboxamide] ([NMeL]I[NMeA][Aze][NMePhe(4-Me)][Sar][X63][X64][Ac5c][NMeI][NMeD]-NMe2; lactam N-11) showed an IC50 of 5.5 nM.
